In patent US8217013B2, “Polyene diester antibiotics” (priority 2007, dated 2012):
Where two headings read alike, the source gives them in different places.

How the values were obtained:
Candida albicans = assay: Test of antibacterial activity in vitro (bacteria-inhibition zone); format: cell-based; conditions: Candida albicans; for zone of inhibition at 1.4 µg/mL: 1.4 μg/ml after conversion, serum added (40% defibered sheep serum); for zone of inhibition at 2.8 µg/mL: 2.8 μg/ml after conversion, no serum
Saccharomyces cerevisiae = assay: as above; format: cell-based; conditions: Saccharomyces cerevisiae; for zone of inhibition at 1.4 µg/mL: 1.4 μg/ml after conversion, serum added (40% defibered sheep serum); for zone of inhibition at 2.8 µg/mL: 2.8 μg/ml after conversion, no serum
Candida mycoderma = assay: as above; format: cell-based; conditions: for zone of inhibition at 1.4 µg/mL: 1.4 μg/ml after conversion, serum added (40% defibered sheep serum); for zone of inhibition at 2.8 µg/mL: 2.8 μg/ml after conversion, no serum
most of the fungal = conditions: for most of the fungal; cited from earlier work
[1] = study by Rutgers University; cited from earlier work
esterase = conditions: cited from earlier work
[2] = 0 h, read-out: diameter of the bacteria-inhibition zone, Candida albicans 0 h
[3] = 6 h, read-out: diameter of the bacteria-inhibition zone, Candida albicans 6 h
[4] = 24 h, read-out: diameter of the bacteria-inhibition zone, Candida albicans 24 h
[5] = 48 h, read-out: diameter of the bacteria-inhibition zone, Candida albicans 48 h
[6] = 0 h, read-out: diameter of the bacteria-inhibition zone, Saccharomyces cerevisiae 0 h
[7] = 6 h, read-out: diameter of the bacteria-inhibition zone, Saccharomyces cerevisiae 6 h
[8] = 24 h, read-out: diameter of the bacteria-inhibition zone, Saccharomyces cerevisiae 24 h
[9] = 48 h, read-out: diameter of the bacteria-inhibition zone, Saccharomyces cerevisiae 48 h
[10] = 0 h, read-out: diameter of the bacteria-inhibition zone, Candida mycoderma 0 h
[11] = 6 h, read-out: diameter of the bacteria-inhibition zone, Candida mycoderma 6 h
[12] = 24 h, read-out: diameter of the bacteria-inhibition zone, Candida mycoderma 24 h
[13] = 48 h, read-out: diameter of the bacteria-inhibition zone, Candida mycoderma 48 h

C[C@@H]1[C@H](O)[C@@H](C)/C=C/C=C/C=C/C=C/C=C/C=C/C=C/[C@H](O[C@@H]2O[C@H](C)[C@@H](O)[C@H](N)[C@@H]2O)C[C@@H]2O[C@](O)(C[C@@H](O)C[C@@H](O)[C@H](O)CC[C@@H](O)C[C@@H](O)CC(=O)O[C@H]1C)C[C@H](O)[C@H]2C(=O)O [amphotericin B, reference compound]
zone of inhibition at 1.4 µg/mL (Candida albicans; [2]): 12 to 14 mm
zone of inhibition at 2.8 µg/mL (Candida albicans; [2]): 14 to 16 mm
zone of inhibition at 1.4 µg/mL (Candida albicans; [3]): 12 to 14 mm
zone of inhibition at 2.8 µg/mL (Candida albicans; [3]): 14 to 16 mm
zone of inhibition at 1.4 µg/mL (Candida albicans; [4]): 12 to 14 mm
zone of inhibition at 2.8 µg/mL (Candida albicans; [4]): 14 to 16 mm
zone of inhibition at 1.4 µg/mL (Candida albicans; [5]): 12 to 14 mm
zone of inhibition at 2.8 µg/mL (Candida albicans; [5]): 14 to 16 mm
zone of inhibition at 1.4 µg/mL (Saccharomyces cerevisiae; [6]): 14 to 16 mm
zone of inhibition at 2.8 µg/mL (Saccharomyces cerevisiae; [6]): 16 to 18 mm
zone of inhibition at 1.4 µg/mL (Saccharomyces cerevisiae; [7]): 14 to 16 mm
zone of inhibition at 2.8 µg/mL (Saccharomyces cerevisiae; [7]): 16 to 18 mm
zone of inhibition at 1.4 µg/mL (Saccharomyces cerevisiae; [8]): 14 to 16 mm
zone of inhibition at 2.8 µg/mL (Saccharomyces cerevisiae; [8]): 16 to 18 mm
zone of inhibition at 1.4 µg/mL (Saccharomyces cerevisiae; [9]): 14 to 16 mm
zone of inhibition at 2.8 µg/mL (Saccharomyces cerevisiae; [9]): 16 to 18 mm
zone of inhibition at 1.4 µg/mL (Candida mycoderma; [10]): 12 to 14 mm
zone of inhibition at 2.8 µg/mL (Candida mycoderma; [10]): 14 to 16 mm
zone of inhibition at 1.4 µg/mL (Candida mycoderma; [11]): 12 to 14 mm
zone of inhibition at 2.8 µg/mL (Candida mycoderma; [11]): 14 to 16 mm
zone of inhibition at 1.4 µg/mL (Candida mycoderma; [12]): 12 to 14 mm
zone of inhibition at 2.8 µg/mL (Candida mycoderma; [12]): 14 to 16 mm
zone of inhibition at 1.4 µg/mL (Candida mycoderma; [13]): 12 to 14 mm
zone of inhibition at 2.8 µg/mL (Candida mycoderma; [13]): 14 to 16 mm
minimum inhibitory concentration (MIC) (most of the fungal): 0.02 to 1 µg/mL

COC(=O)[C@H]1[C@@H]2C[C@@H](O[C@@H]3O[C@H](C)[C@@H](O)[C@H](N)[C@@H]3O)/C=C/C=C/C=C/C=C/C=C/C=C/C=C/[C@H](C)[C@@H](O)[C@@H](C)[C@H](C)OC(=O)C[C@H](O)C[C@H](O)CC[C@@H](O)[C@H](O)C[C@H](O)C[C@](O)(C[C@@H]1O)O2 [amphotericin methyl ester]
toxicity [1]: toxicity was lowered
hydrolysis by esterase in vivo (esterase): cannot be hydrolyzed by esterase in vivo
